Patent US10065990B2, “Cyclic peptide compound, and preparation method, pharmaceutical composition and use thereof” (HANGZHOU GUANYU BIO-MEDICAL CO., LTD, priority 2013, dated 2018)
Where two headings read alike, the source gives them in different places.

Columns and labels:
[1] = test system: HCC827 (human non-small cell lung cancer cells); experiment: MTT cancer cell growth inhibition; format: cell-based; details: Homo sapiens, HCC827, 72 h, MTT, 72 hours incubation, HCC827 cells; read-out: GI50 HCC827
How it was run: (§1)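 Cells grown in DMEM or RPMI 1640 with 10% FBS were seeded at 1500/well and left overnight at 37° C., 5% CO2. Compounds at final 10^−5 to 10^−10 M were added in triplicate for 72 h. MTT was then added for 4 h, formazan dissolved in DMSO, and absorbance read at 570 nm to derive GI50.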

[2] = test system: BGC-823 (human gastric cancer cells); experiment: MTT cancer cell growth inhibition; format: cell-based; details: Homo sapiens, BGC-823, 72 h, MTT, 72 hours incubation, read-out: GI50 BG
How it was run: as §1

[3] = test system: KBM5-T315I (human chronic myelogenous leukemia); experiment: MTT cancer cell growth inhibition; format: cell-based; details: Homo sapiens, 72 h, MTT, 72 hours incubation, KBM5-T315I cells; read-out: GI50 KBM5-T315I
How it was run: as §1

[4] = test system: N-87 (human gastric cancer cells); experiment: MTT cancer cell growth inhibition; format: cell-based; details: Homo sapiens, 72 h, MTT, 72 hours incubation, N-87 cells; read-out: GI50 N-87
How it was run: as §1

[5] = test system: H1975 (non-small cell lung adenocarcinoma); experiment: MTT cancer cell growth inhibition; format: cell-based; details: Homo sapiens, NCI-H1975, 72 h, MTT, 72 hours incubation, H1975 cells; read-out: GI50 H1975
How it was run: as §1

[6] = test system: DU145 (human prostate cancer cells); experiment: MTT cancer cell growth inhibition; format: cell-based; details: Homo sapiens, DU-145, 72 h, MTT, 72 hours incubation, read-out: GI50 Du1
How it was run: as §1

[7] = test system: MCF-7 (human breast cancer cells); experiment: MTT cancer cell growth inhibition; format: cell-based; details: Homo sapiens, MCF7, 72 h, 72 hours incubation, read-out: GI50 MCF
How it was run: as §1

[8] = test system: MOLT-4 (human acute lymphoblastic leukemia cells); experiment: MTT cancer cell growth inhibition; format: cell-based; details: Homo sapiens, MOLT-4, 72 h, MTT, 72 hours incubation, read-out: GI50 Mol
How it was run: as §1

[9] = test system: K562 (human leukemia cells); experiment: MTT cancer cell growth inhibition; format: cell-based; details: Homo sapiens, K562, 72 h, MTT, 72 hours incubation, K562 cells; read-out: GI50 K562
How it was run: as §1

[10] = test system: lncap (prostate cancer cells); experiment: MTT cancer cell growth inhibition; format: cell-based; details: Homo sapiens, LNCaP, 72 h, MTT, 72 hours incubation, read-out: GI50 lnca
How it was run: as §1

[11] = test system: SGC-7901 (human gastric cancer cells); experiment: MTT cancer cell growth inhibition; format: cell-based; details: Homo sapiens, SGC-7901, 72 h, MTT, 72 hours incubation, SGC-7901 cells; read-out: GI50 SGC-7901
How it was run: as §1

[12] = test system: U937 (human leukemia cells); experiment: MTT cancer cell growth inhibition; format: cell-based; details: Homo sapiens, U-937, 72 h, MTT, 72 hours incubation, read-out: GI50 U93
How it was run: as §1

[13] = test system: A549 (human lung cancer cells); experiment: MTT cancer cell growth inhibition; format: cell-based; details: Homo sapiens, A549, 72 h, MTT, 72 hours incubation, read-out: GI50 A54
How it was run: as §1

[14] = test system: PANC-1 (Pac-1, human pancreatic cancer cells); experiment: MTT cancer cell growth inhibition; format: cell-based; details: Homo sapiens, PANC-1, 72 h, MTT, 72 hours incubation, read-out: GI50 PAN
How it was run: as §1

[15] = test system: Hela (human cervical cancer cells); experiment: MTT cancer cell growth inhibition; format: cell-based; details: Homo sapiens, HeLa, 72 h, MTT, 72 hours incubation, read-out: GI50 Hela
How it was run: as §1

[16] = test system: KBM-5 (human chronic myelogenous leukemia); experiment: MTT cancer cell growth inhibition; format: cell-based; details: Homo sapiens, KBM5, 72 h, MTT, 72 hours incubation, KBM-5 cells; read-out: GI50 KBM-5
How it was run: as §1

[17] = test system: MDA-MB-231 (breast cancer cells); experiment: MTT cancer cell growth inhibition; format: cell-based; details: Homo sapiens, MDA-MB-231, 72 h, read-out: GI50 MDA-MB-231, MTT, 72 hours incubation, MDA-MB-231 cells
How it was run: as §1

[18] = test system: Bel-7402 (human hepatoma cells); experiment: MTT cancer cell growth inhibition; format: cell-based; details: Homo sapiens, Bel-7402, 72 h, MTT, 72 hours incubation, Bel-7402 cells; read-out: GI50 Bel-7402
How it was run: as §1

[19] = test system: HT1080 (human fibrosarcoma cells); experiment: MTT cancer cell growth inhibition; format: cell-based; details: Homo sapiens, HT-1080, 72 h, MTT, 72 hours incubation, read-out: GI50 HT1
How it was run: as §1

[20] = test system: Huh-7 (human hepatoma cells); experiment: MTT cancer cell growth inhibition; format: cell-based; details: Homo sapiens, Huh-7, 72 h, MTT, 72 hours incubation, Huh-7 cells; read-out: GI50 Huh-7
How it was run: as §1

HDAC7 = molecular target: T1, HDAC7 (Homo sapiens, UniProt Q8WUI4); experiment: HDAC biochemical activity measurement (fluorescent substrate deacetylation);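 also: fluorogenic deacetylation assay using acetyl-lysine substrate at 20 µM, enzyme and compound incubated 30 min at 37 °C, then developer added, fluorescence read at 360/460 nm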; details: HDAC7; 37° C. 30 minutes
T1 sequence (Q8WUI4 1-952): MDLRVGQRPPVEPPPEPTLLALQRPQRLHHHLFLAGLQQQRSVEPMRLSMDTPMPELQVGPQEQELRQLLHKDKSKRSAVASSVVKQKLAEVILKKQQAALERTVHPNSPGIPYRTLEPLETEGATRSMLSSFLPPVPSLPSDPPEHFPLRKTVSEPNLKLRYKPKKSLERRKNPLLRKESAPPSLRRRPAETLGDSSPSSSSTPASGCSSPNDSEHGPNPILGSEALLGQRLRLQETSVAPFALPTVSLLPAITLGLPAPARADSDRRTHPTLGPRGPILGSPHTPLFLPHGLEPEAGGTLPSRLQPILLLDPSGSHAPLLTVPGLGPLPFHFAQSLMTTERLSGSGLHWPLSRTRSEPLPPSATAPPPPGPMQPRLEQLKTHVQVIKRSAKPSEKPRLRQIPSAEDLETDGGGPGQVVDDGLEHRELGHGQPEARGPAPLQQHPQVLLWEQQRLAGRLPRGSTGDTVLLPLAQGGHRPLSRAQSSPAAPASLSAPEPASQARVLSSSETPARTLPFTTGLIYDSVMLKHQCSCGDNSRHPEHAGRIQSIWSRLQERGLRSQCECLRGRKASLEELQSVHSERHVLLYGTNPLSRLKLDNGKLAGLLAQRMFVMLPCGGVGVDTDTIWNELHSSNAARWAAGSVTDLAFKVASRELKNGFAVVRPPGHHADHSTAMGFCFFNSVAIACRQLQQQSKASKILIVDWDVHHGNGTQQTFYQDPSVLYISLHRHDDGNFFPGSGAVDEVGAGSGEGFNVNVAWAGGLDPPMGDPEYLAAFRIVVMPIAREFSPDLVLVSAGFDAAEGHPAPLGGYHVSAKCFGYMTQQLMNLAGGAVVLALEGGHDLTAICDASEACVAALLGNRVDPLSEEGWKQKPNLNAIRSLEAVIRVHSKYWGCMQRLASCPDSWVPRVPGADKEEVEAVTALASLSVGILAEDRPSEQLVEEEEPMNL

Structure (SMILES) | GI50 [1] | GI50 ([2]; BGC-823 cells) | GI50 [3] | GI50 [4] | GI50 [5] | GI50 ([6]; DU145 cells) | GI50 ([7]; MCF-7 cells) | GI50 ([8]; MOLT-4 cells) | GI50 [9] | GI50 ([10]; lncap cells) | GI50 [11] | GI50 ([12]; U937 cells) | GI50 ([13]; A549 cells) | GI50 ([14]; PANC-1 cells) | GI50 ([15]; Hela cells) | GI50 [16] | GI50 [17] | GI50 [18] | GI50 [20] | IC50 HDAC7 (HDAC7) | further results
C/C=C1\NC(=O)c2nc(ccc2SC)CNC(=O)C[C@@H](/C=C/CCSC(=O)CCC)OC(=O)[C@H](C(C)C)NC1=O [Compound 159] | 0.035 µM | 0.08 µM | 0.053 µM | 0.063 µM | 0.024 µM | 0.04 µM | 0.05 µM | 0.05 µM | 0.062 µM | 0.06 µM | 0.075 µM | 0.06 µM | 0.03 µM | 0.05 µM | 0.07 µM | 0.035 µM | 0.036 µM | 0.023 µM | 0.058 µM | no activity | GI50 ([19]; HT1080 cells): 0.05 µM
C=C1NC(=O)c2nc(ccc2SC)CNC(=O)C[C@@H](/C=C/CCSC(C)=O)OC(=O)[C@H](C(C)C)NC1=O [Compound 204] | 0.037 µM | 0.02 µM | 0.019 µM | 0.028 µM | 0.067 µM | 0.05 µM | 0.03 µM | 0.04 µM | 0.028 µM | 0.05 µM | 0.073 µM | 0.02 µM | 0.03 µM | 0.02 µM | 0.06 µM | 0.063 µM | 0.056 µM | 0.036 µM | 0.083 µM | no activity | GI50 ([19]; HT1080 cells): 0.03 µM
C/C=C1\NC(=O)c2nc(ccc2F)CNC(=O)C[C@@H](/C=C/CCS)OC(=O)[C@H](Cc2ccccc2)NC1=O [Compound 115] | 0.041 µM |  | 0.028 µM | 0.045 µM | 0.023 µM |  |  |  | 0.041 µM |  | 0.023 µM |  |  |  |  | 0.053 µM | 0.036 µM | 0.036 µM | 0.099 µM | no activity | GI50 [2]: 0.06 µM; GI50 [6]: 0.07 µM; GI50 [7]: 0.07 µM; GI50 [8]: 0.08 µM; GI50 [10]: 0.08 µM; GI50 [12]: 0.04 µM; GI50 [13]: 0.04 µM; GI50 [14]: 0.06 µM; GI50 [15]: 0.08 µM; GI50 [19]: 0.08 µM
C/C=C1\NC(=O)c2cc(SC)cc(n2)CNC(=O)C[C@@H](/C=C/CCSC(=O)CCCCCCC)OC(=O)[C@H](C(C)C)NC1=O [Compound 148] | 0.016 µM | 0.04 µM | 0.053 µM | 0.047 µM | 0.039 µM | 0.05 µM | 0.05 µM | 0.08 µM | 0.062 µM | 0.04 µM | 0.051 µM | 0.02 µM | 0.02 µM | 0.04 µM | 0.04 µM | 0.035 µM | 0.051 µM | 0.053 µM | 0.064 µM | no activity | GI50 ([19]; HT1080 cells): 0.08 µM
C/C=C1\NC(=O)c2cc(F)cc(n2)CNC(=O)C[C@@H](/C=C/CCS)OC(=O)[C@H](C)NC1=O [Compound 113] | 0.048 µM |  | 0.051 µM | 0.042 µM | 0.024 µM |  |  |  | 0.047 µM |  | 0.095 µM |  |  |  |  | 0.036 µM | 0.031 µM | 0.034 µM | 0.021 µM | no activity | GI50 [2]: 0.07 µM; GI50 [6]: 0.05 µM; GI50 [7]: 0.05 µM; GI50 [8]: 0.1 µM; GI50 [10]: 0.08 µM; GI50 [12]: 0.06 µM; GI50 [13]: 0.06 µM; GI50 [14]: 0.07 µM; GI50 [15]: 0.08 µM; GI50 [19]: 0.1 µM
C/C=C1\NC(=O)c2cccc(n2)CNC(=O)C[C@@H](/C=C/CCS)OC(=O)[C@H](Cc2cccc3ccccc23)NC1=O [Compound 123] | 0.069 µM |  | 0.067 µM | 0.062 µM | 0.021 µM |  |  |  | 0.036 µM |  | 0.051 µM |  |  |  |  | 0.068 µM | 0.039 µM | 0.027 µM | 0.035 µM | no activity | GI50 [2]: 0.04 µM; GI50 [6]: 0.06 µM; GI50 [7]: 0.06 µM; GI50 [8]: 0.09 µM; GI50 [10]: 0.09 µM; GI50 [12]: 0.06 µM; GI50 [13]: 0.06 µM; GI50 [14]: 0.04 µM; GI50 [15]: 0.09 µM; GI50 [19]: 0.09 µM
C/C=C1\NC(=O)c2ccc(SC)c(n2)CCNC(=O)C[C@@H](/C=C/CCSC(C)=O)OC(=O)[C@H](C(C)C)NC1=O [Compound 225] | 0.013 µM | 0.04 µM | 0.038 µM | 0.038 µM | 0.029 µM | 0.02 µM | 0.03 µM | 0.06 µM | 0.081 µM | 0.02 µM | 0.041 µM | 0.03 µM | 0.04 µM | 0.03 µM | 0.07 µM | 0.033 µM | 0.071 µM | 0.072 µM | 0.059 µM | no activity | GI50 ([19]; HT1080 cells): 0.02 µM
